Like-named read-outs stand apart in the source and are kept apart here.
Experiments:
[1] = test system: human subjects/patients with pain following dental surgery; experiment: Dental surgery pain study: remedication (rescue medication); type: in vivo; details: ITT
Description: For this randomized, double-blind, active-controlled and placebo-controlled, parallel-group study, human subjects were randomized into one of the following five treatment groups:
A positive control (T, Group 4) was used to determine the sensitivity of the clinical end points. A negative control (placebo, Group 5) was used to establish the frequency and magnitude of changes in clinical end points that may occur in the absence of an active treatment. A single oral dose of study medication was administered when the subject experienced moderate to severe pain following the surgical extraction of three or four third molars. At least one of the molars was required to be mandibular bony impacted.
The subject was then given a rescue medication and discontinued from study. The subject was encouraged to wait at least until Hour 2 after administration of the study medication before using rescue medication. Subjects remedicating earlier than Hour 1 were not included in the analysis for efficacy. Subjects not remedicating during the eight hours of evaluation received a diary card and asked to record the time of remedication after they left the clinic.
Time to remedication (or rescue medication) was analyzed using the Kaplan-Meier estimate to compute the survival distribution function. The distribution was compared among groups using the Log Rank Test. A subject was considered censored at eight hours if remedication had not occurred. Pairwise comparisons were made using the LIFETEST methodology. Hochberg's procedure was used to control the family-wise type 1 error. Time to Onset of Meaningful Relief (determined by the stopwatch) was similarly analyzed. […] In all the above analyses baseline pain intensity could be used as a stratification factor. […] The sample size was estimated from historical data and from practical considerations rather than from calculation of expected measured differences.

[2] = test system: human subjects/patients with pain following dental surgery; experiment: Dental surgery pain study: categorical pain intensity difference (PID, SPID); type: in vivo; details: LOCF; for Hourly Pain Intensity Difference (PID) score, Mean / Hourly Pain Intensity Difference (PID) score, Median: ITT subjects, PID as numerical variable
[3] = test system: human subjects/patients with pain following dental surgery; experiment: Dental surgery pain study: visual analog scale pain intensity difference (VAS-PID, VAS-SPID); type: in vivo; details: LOCF; for Hourly Visual Analog-PID (VAS-PID) score, Mean / Hourly Visual Analog-PID (VAS-PID) score, Median: ITT subjects
[4] = test system: human subjects/patients with pain following dental surgery; type: in vivo
[5] = in vivo, cited from earlier work

COc1cccc([C@@]2(O)CCCC[C@@H]2CN(C)C)c1.Cl (racemic) [tramadol, (1RS,2RS)-2[(dimethylamino)-methyl]-1-(3-methoxyphenyl)-cyclohexanol HCL]
Time to Remedication up to 8 Hours, Median ([1]; Kaplan-Meier): 2.48 h | Time to Remedication up to 24 Hours, Median ([1]; Kaplan-Meier): 2.48 h | Percent of Subject who take Remedication up to 8 hours, No ([1]; first section of Table 9): 15 (30.0%) n (%) | Percent of Subject who take Remedication up to 8 hours, Yes ([1]; first section of Table 9): 35 (70.0%) n (%) | Percent of Subject who take Remedication up to 8 hours, No ([1]; second section of Table 9): 8 (16.0%) n (%) | Percent of Subject who take Remedication up to 8 hours, Yes ([1]; second section of Table 9): 42 (84.0%) n (%) | Number of Subjects taken Rescue Medication ([1]; up to 8 Hours): 35 subjects | Number of Subjects taken Rescue Medication ([1]; up to 24 Hours): 42 subjects | Hourly Pain Intensity Difference (PID) score, Mean ([2]; Hour 0.5): −0.22 | Hourly Pain Intensity Difference (PID) score, Median ([2]; Hour 0.5): 0 | Hourly Pain Intensity Difference (PID) score, Mean ([2]; Hour 1): −0.30 | Hourly Pain Intensity Difference (PID) score, Median ([2]; Hour 1): 0 | Hourly Pain Intensity Difference (PID) score, Mean ([2]; Hour 2): −0.06 | Hourly Pain Intensity Difference (PID) score, Median ([2]; Hour 2): 0 | Hourly Pain Intensity Difference (PID) score, Mean ([2]; Hour 3): −0.06 | Hourly Pain Intensity Difference (PID) score, Median ([2]; Hour 3): 0 | Hourly Pain Intensity Difference (PID) score, Mean ([2]; Hour 4): 0.06 | Hourly Pain Intensity Difference (PID) score, Median ([2]; Hour 4): 0 | Hourly Pain Intensity Difference (PID) score, Mean ([2]; Hour 5): 0.00 | Hourly Pain Intensity Difference (PID) score, Median ([2]; Hour 5): 0 | Hourly Pain Intensity Difference (PID) score, Mean ([2]; Hour 6): 0.04 | Hourly Pain Intensity Difference (PID) score, Median ([2]; Hour 6): 0 | Hourly Pain Intensity Difference (PID) score, Mean ([2]; Hour 7): −0.02 | Hourly Pain Intensity Difference (PID) score, Median ([2]; Hour 7): 0 | Hourly Pain Intensity Difference (PID) score, Mean ([2]; Hour 8): 0.02 | Hourly Pain Intensity Difference (PID) score, Median ([2]; Hour 8): 0 | SPID up to 4 Hours, Mean ([2]; ITT, single oral dose): −0.58 | SPID up to 4 Hours, Median ([2]; ITT, single oral dose): 0 | SPID up to 6 Hours, Mean ([2]; ITT, single oral dose): −0.54 | SPID up to 6 Hours, Median ([2]; ITT, single oral dose): 0 | SPID up to 8 Hours, Mean ([2]; ITT, single oral dose): −0.54 | SPID up to 8 Hours, Median ([2]; ITT, single oral dose): 0 | Hourly Visual Analog-PID (VAS-PID) score, Mean ([3]; Hour 0.5): −6.16 | Hourly Visual Analog-PID (VAS-PID) score, Median ([3]; Hour 0.5): −4 | Hourly Visual Analog-PID (VAS-PID) score, Mean ([3]; Hour 1): −7.54 | Hourly Visual Analog-PID (VAS-PID) score, Median ([3]; Hour 1): −7 | Hourly Visual Analog-PID (VAS-PID) score, Mean ([3]; Hour 2): −2.58 | Hourly Visual Analog-PID (VAS-PID) score, Median ([3]; Hour 2): −4 | Hourly Visual Analog-PID (VAS-PID) score, Mean ([3]; Hour 3): −1.76 | Hourly Visual Analog-PID (VAS-PID) score, Median ([3]; Hour 3): −2 | Hourly Visual Analog-PID (VAS-PID) score, Mean ([3]; Hour 4): 1.50 | Hourly Visual Analog-PID (VAS-PID) score, Median ([3]; Hour 4): −2 | Hourly Visual Analog-PID (VAS-PID) score, Mean ([3]; Hour 5): 1.16 | Hourly Visual Analog-PID (VAS-PID) score, Median ([3]; Hour 5): −2 | Hourly Visual Analog-PID (VAS-PID) score, Mean ([3]; Hour 6): 1.36 | Hourly Visual Analog-PID (VAS-PID) score, Median ([3]; Hour 6): −2 | Hourly Visual Analog-PID (VAS-PID) score, Mean ([3]; Hour 7): −1.10 | Hourly Visual Analog-PID (VAS-PID) score, Median ([3]; Hour 7): −2 | Hourly Visual Analog-PID (VAS-PID) score, Mean ([3]; Hour 8): −0.02 | Hourly Visual Analog-PID (VAS-PID) score, Median ([3]; Hour 8): −2 | VAS-SPID up to 4 Hours, Mean ([3]; ITT, single oral dose): −16.54 | VAS-SPID up to 4 Hours, Median ([3]; ITT, single oral dose): −19 | VAS-SPID up to 6 Hours, Mean ([3]; ITT, single oral dose): −14.02 | VAS-SPID up to 6 Hours, Median ([3]; ITT, single oral dose): −18 | VAS-SPID up to 8 Hours, Mean ([3]; ITT, single oral dose): −15.14 | VAS-SPID up to 8 Hours, Median ([3]; ITT, single oral dose): −27 | Hourly Pain Relief Score (PAR), Mean ([4]; Hour 0.5, ITT): 0.28 | Hourly Pain Relief Score (PAR), Median ([4]; Hour 0.5, ITT): 0 | Hourly Pain Relief Score (PAR), Mean ([4]; Hour 1, ITT): 0.40 | Hourly Pain Relief Score (PAR), Median ([4]; Hour 1, ITT): 0 | Hourly Pain Relief Score (PAR), Mean ([4]; Hour 2, ITT): 0.76 | Hourly Pain Relief Score (PAR), Median ([4]; Hour 2, ITT): 0 | Hourly Pain Relief Score (PAR), Mean ([4]; Hour 3, ITT): 0.80 | Hourly Pain Relief Score (PAR), Median ([4]; Hour 3, ITT): 0 | Hourly Pain Relief Score (PAR), Mean ([4]; Hour 4, ITT): 0.94 | Hourly Pain Relief Score (PAR), Median ([4]; Hour 4, ITT): 0 | Hourly Pain Relief Score (PAR), Mean ([4]; Hour 5, ITT): 0.84 | Hourly Pain Relief Score (PAR), Median ([4]; Hour 5, ITT): 0 | Hourly Pain Relief Score (PAR), Mean ([4]; Hour 6, ITT): 0.86 | Hourly Pain Relief Score (PAR), Median ([4]; Hour 6, ITT): 0 | Hourly Pain Relief Score (PAR), Mean ([4]; Hour 7, ITT): 0.82 | Hourly Pain Relief Score (PAR), Median ([4]; Hour 7, ITT): 0 | Hourly Pain Relief Score (PAR), Mean ([4]; Hour 8, ITT): 0.86 | Hourly Pain Relief Score (PAR), Median ([4]; Hour 8, ITT): 0 | TOTPAR up to 4 Hours, Mean ([4]; ITT, single oral dose, LOCF): 3.18 | TOTPAR up to 4 Hours, Median ([4]; ITT, single oral dose, LOCF): 2 | TOTPAR up to 6 Hours, Mean ([4]; ITT, single oral dose, LOCF): 4.88 | TOTPAR up to 6 Hours, Median ([4]; ITT, single oral dose, LOCF): 2 | TOTPAR up to 8 Hours, Mean ([4]; ITT, single oral dose, LOCF): 6.56 | TOTPAR up to 8 Hours, Median ([4]; ITT, single oral dose, LOCF): 2 | potency relative to morphine ([5]; iv): approximately one-tenth | oral analgesic potency versus morphine ([5]; po): equipotent to oral morphine 30 mg

— patent US6765010B2, “Compositions and methods for enhancing analgesic potency of tramadol and attenuating its adverse side effects” (Pain Therapeutics, Inc., priority 1999, dated 2004)
